Measurements reported in patent US4430319A, “Radioactive iodine labeled phenolic amines” (State University of New York, priority 1982, dated 1984).

Test: Biodistribution of I-123 Compound in rats (i.v. injection, excised organs gamma counted)
Assay type: in vivo, Sprague-Dawley male rats
Conditions: for Blood/Brain: concentration ratio calculated from % dose/gram of wet tissue; for Biodistribution, Brain / Biodistribution, Heart / Biodistribution, Kidneys / Biodistribution, Liver / Biodistribution, Lungs / Biodistribution, Skin / Biodistribution, Spleen / Biodistribution, Stomach / Biodistribution, Thyroids / Biodistribution, Blood / Biodistribution, Muscle: average of 3; for Biodistribution, Blood: blood taken as 7% of body weight; for Biodistribution, Muscle: muscle taken as 40% of body weight
Procedure: Studies of distribution of the optimum radiopharmaceutical compound of the present invention in rats, the results of which are reflected in Table 1, were conducted according to standard practice in the pharmacological sciences, and therefore need not be described here in great detail. Nevertheless, for the sake of complete understanding of the present invention, some experimental details of these studies are briefly described below: Sprague-Dawley male rats (220-300 g) were injected intravenously (femoral vein) with a 0.2 ml solution (0.5-20. micro Ci) under light ether anaesthesia. At different time periods after the injection, the animals were sacrificed and organs of interest were excised and counted in a well counter. Percent dose was estimated by comparison of tissue counts to suitably diluted aliquots of the injected material. Total activities in blood and muscle were calculated by assuming that they are 7% and 40% of the body weight respectively. Sprague-Dawley male rats (220-300 g) under light ether anesthesia were injected intravenously with 0.2 ml of a saline solution containing 0.5-20 uCi of test compound (specific activity 0.5-1.0 uCi/mg). At different time periods after injection the animals were put under ether anesthesia and killed by cardiactomy. The organs of interest were excised, weighed and counted in a Beckman automatic gamma counter (Model 4000). The % dose/organ was determined by comparison of tissue radioactivity levels to suitably diluted aliquots of the injected dose. The approximate % dose/g of wet tissue or organ can be calculated by dividing the % dose/organ by the mean organ weight (mean weights: heart 0.85 g, brain 1.65 g, blood 18 g, liver 9 g, kidneys 1.9 g, lungs 1.6 g).

[1] = 2 min after i.v. injection, rats
[2] = 1 hr after i.v. injection, rats

Blood/Brain (2 min after i.v. injection): 14.84 | Biodistribution, Brain [1]: 2.74 % dose/organ | Biodistribution, Heart [1]: 2.71 % dose/organ | Biodistribution, Kidneys [1]: 8.06 % dose/organ | Biodistribution, Liver [1]: 5.52 % dose/organ | Biodistribution, Lungs [1]: 36.53 % dose/organ | Biodistribution, Skin [1]: 6.73 % dose/organ | Biodistribution, Spleen [1]: 0.72 % dose/organ | Biodistribution, Stomach [1]: 0.80 % dose/organ | Biodistribution, Thyroids [1]: 0.59 % dose/organ | Biodistribution, Blood [1]: 2.02 % dose/organ | Biodistribution, Muscle [1]: 5.66 % dose/organ | Blood/Brain (1 hr after i.v. injection): 32.18 | Biodistribution, Brain [2]: 2.50 % dose/organ | Biodistribution, Heart [2]: 0.29 % dose/organ | Biodistribution, Kidneys [2]: 2.87 % dose/organ | Biodistribution, Liver [2]: 4.68 % dose/organ | Biodistribution, Lungs [2]: 18.25 % dose/organ | Biodistribution, Skin [2]: 9.21 % dose/organ | Biodistribution, Spleen [2]: 1.58 % dose/organ | Biodistribution, Stomach [2]: 0.93 % dose/organ | Biodistribution, Thyroids [2]: 0.06 % dose/organ | Biodistribution, Blood [2]: 0.85 % dose/organ | Biodistribution, Muscle [2]: 12.77 % dose/organ | initial uptake in the brain, lung and liver (rats, i.v., Table 1, in words): high initial uptake | persistence of uptake in the brain, lung and liver (rats, i.v., Table 1, in words): persists sufficiently to allow imaging
SMILES: Cc1cc([123I])cc(CN(C)CCCN(C)C)c1O [I-123 Compound, N,N,N-trimethyl-N'[2-hydroxy-3-methyl-5-iodobenzyl]-1,3-propanediamines]
